Laboratory results published in ChEMBL document CHEMBL1138538, “Design, synthesis, and evaluation of 10-N-substituted acridones as novel chemosensitizers in Plasmodium falciparum” (Antimicrob Agents Chemother, 2007).

Legend:
[1] = target: Sodium-dependent serotonin transporter (Homo sapiens, UniProt P31645); format: cell-based, HEK293
Description: Inhibition of [3H]5HT uptake at human SERT expressed in HEK293 cells

[2] = target: Sodium-dependent dopamine transporter (Homo sapiens, UniProt Q01959)
Description: Inhibition of [3H]dopamine uptake at human DAT expressed in HEK293 cells

[3] = target: Sodium-dependent noradrenaline transporter (Homo sapiens, UniProt P23975)
Description: Inhibition of [3H]norepinephrine uptake at human NET expressed in HEK293 cells

cells = details: Mus musculus, C57BL/6J, Splenocyte, 72 h
Description: Cytotoxicity against C57BL/6J mouse splenocytes after 72 hrs by alamar blue assay

Plasmodium falciparum [4] = experiment: microbe, parasite or virus in culture; details: Dd2, 72 h
Plasmodium falciparum [5] = experiment: microbe, parasite or virus in culture; details: D6, 72 h
Plasmodium falciparum [6] = experiment: Antimalarial activity after 72 hrs against chloroquine-resistant transporter 106/1'76T mutant Plasmodium falciparum infected human erythrocytes by SYBR green assay; format: functional, organism-based
Plasmodium falciparum [7] = experiment: Antimalarial activity after 72 hrs against chloroquine-resistant transporter 106/1'76N mutant Plasmodium falciparum infected human erythrocytes by SYBR green assay; format: functional, organism-based
Histamine H1 receptor = Histamine H1 receptor (Homo sapiens, UniProt P35367); experiment: biochemical; format: cell-based, CHO
Description: Displacement of [3H]pyrilamine from human histamine receptor subtype 1 expressed in CHO cells

Plasmodium falciparum [8] = experiment: Chemosensitizing activity after 72 hrs against chloroquine-sensitive Plasmodium falciparum D6 infected human erythrocytes as IC50 ratio desethylchloroquine +/- 500 nM drug by SYBR green assay; format: functional
Plasmodium falciparum [9] = experiment: Chemosensitizing activity after 72 hrs against chloroquine-resistant Plasmodium falciparum Dd2 infected human erythrocytes as IC50 ratio desethylchloroquine +/- 500 nM by SYBR green assay; format: functional
Plasmodium falciparum [10] = experiment: Chemosensitizing activity after 72 hrs against chloroquine-sensitive Plasmodium falciparum D6 infected human erythrocytes as IC50 ratio quinine +/- 500 nM by SYBR green assay; format: functional
Plasmodium falciparum [11] = experiment: Chemosensitizing activity after 72 hrs against chloroquine-resistant Plasmodium falciparum Dd2 infected human erythrocytes as IC50 ratio quinine +/- 500 nM by SYBR green assay; format: functional
Plasmodium falciparum [12] = experiment: Antimalarial activity after 72 hrs against chloroquine-resistant transporter 106/1'76I mutant Plasmodium falciparum infected in human erythrocytes by SYBR green assay; format: functional, organism-based

Sodium-dependent noradrenaline transporter, sequence (P23975 whole entry): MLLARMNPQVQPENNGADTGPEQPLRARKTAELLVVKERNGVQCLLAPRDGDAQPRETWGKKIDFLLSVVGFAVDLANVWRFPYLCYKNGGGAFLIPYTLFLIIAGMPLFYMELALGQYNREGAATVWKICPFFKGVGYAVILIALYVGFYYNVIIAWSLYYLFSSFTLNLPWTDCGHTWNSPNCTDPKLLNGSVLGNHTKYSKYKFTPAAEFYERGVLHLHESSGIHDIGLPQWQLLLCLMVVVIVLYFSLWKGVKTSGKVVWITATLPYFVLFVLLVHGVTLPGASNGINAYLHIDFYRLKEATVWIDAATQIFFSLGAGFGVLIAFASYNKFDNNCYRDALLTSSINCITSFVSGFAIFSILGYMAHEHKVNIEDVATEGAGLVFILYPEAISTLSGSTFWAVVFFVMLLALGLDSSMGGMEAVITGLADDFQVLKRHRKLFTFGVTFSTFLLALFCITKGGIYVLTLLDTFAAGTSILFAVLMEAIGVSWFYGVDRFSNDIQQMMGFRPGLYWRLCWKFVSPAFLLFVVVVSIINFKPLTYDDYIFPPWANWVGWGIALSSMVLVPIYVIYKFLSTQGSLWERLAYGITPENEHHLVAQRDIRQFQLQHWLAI
Sodium-dependent serotonin transporter, sequence (P31645 whole entry): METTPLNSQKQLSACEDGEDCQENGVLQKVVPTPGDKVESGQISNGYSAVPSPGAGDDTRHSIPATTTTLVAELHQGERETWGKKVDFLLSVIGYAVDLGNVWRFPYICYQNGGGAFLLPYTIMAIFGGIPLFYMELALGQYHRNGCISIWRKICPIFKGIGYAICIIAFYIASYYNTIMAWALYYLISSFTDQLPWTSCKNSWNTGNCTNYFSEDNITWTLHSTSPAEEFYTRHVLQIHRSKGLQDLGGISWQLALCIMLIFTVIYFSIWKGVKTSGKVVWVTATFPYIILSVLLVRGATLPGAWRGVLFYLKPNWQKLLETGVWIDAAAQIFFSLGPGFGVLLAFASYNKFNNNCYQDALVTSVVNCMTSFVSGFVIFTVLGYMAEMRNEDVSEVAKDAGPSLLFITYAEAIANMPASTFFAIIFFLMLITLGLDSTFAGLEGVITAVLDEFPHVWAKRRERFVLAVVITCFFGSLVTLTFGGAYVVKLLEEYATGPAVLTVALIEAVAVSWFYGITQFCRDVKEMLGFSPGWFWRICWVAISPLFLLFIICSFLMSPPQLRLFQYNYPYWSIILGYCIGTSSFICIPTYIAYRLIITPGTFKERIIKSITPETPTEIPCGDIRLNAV
Sodium-dependent dopamine transporter, sequence (Q01959 whole entry): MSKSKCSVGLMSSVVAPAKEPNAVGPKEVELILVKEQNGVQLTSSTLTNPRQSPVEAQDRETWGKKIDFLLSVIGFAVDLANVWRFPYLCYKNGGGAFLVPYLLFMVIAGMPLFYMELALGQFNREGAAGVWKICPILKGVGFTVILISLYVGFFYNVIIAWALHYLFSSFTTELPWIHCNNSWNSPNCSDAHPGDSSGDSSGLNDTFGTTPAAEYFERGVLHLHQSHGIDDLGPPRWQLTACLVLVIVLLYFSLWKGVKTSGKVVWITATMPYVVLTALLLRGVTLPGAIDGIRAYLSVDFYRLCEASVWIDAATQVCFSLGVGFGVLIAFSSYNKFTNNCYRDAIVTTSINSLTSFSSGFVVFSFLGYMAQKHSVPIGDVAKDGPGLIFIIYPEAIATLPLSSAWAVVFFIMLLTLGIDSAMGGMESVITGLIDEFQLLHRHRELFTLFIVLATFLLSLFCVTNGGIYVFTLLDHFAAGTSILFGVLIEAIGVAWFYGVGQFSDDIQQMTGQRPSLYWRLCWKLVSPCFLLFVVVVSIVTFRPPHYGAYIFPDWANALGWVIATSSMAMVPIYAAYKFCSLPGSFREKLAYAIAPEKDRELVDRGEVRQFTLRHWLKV
Histamine H1 receptor, sequence (P35367 whole entry): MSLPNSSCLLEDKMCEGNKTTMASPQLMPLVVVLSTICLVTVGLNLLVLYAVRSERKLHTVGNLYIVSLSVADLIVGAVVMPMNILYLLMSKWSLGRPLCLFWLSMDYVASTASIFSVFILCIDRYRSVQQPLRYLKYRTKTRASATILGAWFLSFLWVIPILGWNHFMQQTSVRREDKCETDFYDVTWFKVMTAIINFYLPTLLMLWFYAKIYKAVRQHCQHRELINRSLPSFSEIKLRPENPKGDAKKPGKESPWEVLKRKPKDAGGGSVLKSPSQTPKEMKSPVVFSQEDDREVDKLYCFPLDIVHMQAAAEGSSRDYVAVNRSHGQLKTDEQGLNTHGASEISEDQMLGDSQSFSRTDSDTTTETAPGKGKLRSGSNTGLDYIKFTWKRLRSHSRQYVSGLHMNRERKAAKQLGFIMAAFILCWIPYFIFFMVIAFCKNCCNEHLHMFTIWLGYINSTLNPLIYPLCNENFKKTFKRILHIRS

Structure (SMILES) | IC50 [1] [µM] | IC50 [2] [µM] | IC50 [3] [µM] | IC50 (cells) [µM] | IC50 (Plasmodium falciparum [4]) [nM] | IC50 (Plasmodium falciparum [5]) [µM] | IC50 (Plasmodium falciparum [6]) [µM] | IC50 (Plasmodium falciparum [7]) [nM] | IC50 (Histamine H1 receptor) [µM] | Ratio IC50 (Plasmodium falciparum [8]) | Ratio IC50 (Plasmodium falciparum [9]) | Ratio IC50 (Plasmodium falciparum [10]) | Ratio IC50 (Plasmodium falciparum [11]) | IC50 (Plasmodium falciparum [12]) [µM]
CCN(CC)CCn1c2ccccc2c(=O)c2ccccc21 | > 10 | > 10 | > 10 | 28.5 | 7500 | 11.8 |  |  |  |  |  |  |  | 
CCNCCCC(C)Nc1ccnc2cc(Cl)ccc12 (centres undefined) [DESETHYLCHLOROQUINE] |  |  |  |  | 372 | 0.0182 |  |  |  |  |  |  |  | 
CCN(CC)CCCCCCCCn1c2ccccc2c(=O)c2ccccc21 |  |  |  | 17.6 | 1800 | 2.6 |  |  |  |  |  |  |  | 
CCN(CC)CCCCCn1c2ccccc2c(=O)c2ccccc21 | 7.8 | > 10 | 9.1 | 30.5 | 5800 | 3.7 |  |  |  |  |  |  |  | 
CCN(CC)CCCn1c2ccccc2c(=O)c2ccccc21 | > 10 | > 10 | > 10 | 22.5 | 1600 | 8.1 |  |  |  |  |  |  |  | 
CCN(CC)CCCCCCn1c2ccccc2c(=O)c2ccccc21 | 3.5 | > 10 | > 10 | 26.4 | 2700 | 3.2 | 4.5 | 596 | 3.6 | 0.17 | 1.01 | 0.3 | 1 | 3.66
O=c1c2ccccc2n(CCCCCCCl)c2ccccc12 |  |  |  | 59.5 | 2600 | 1.3 |  |  |  |  |  |  |  | 
CN(C)CCC(c1ccc(Cl)cc1)c1ccccn1 (centres undefined) [CHLORPHENIRAMINE] |  |  |  | 33.4 | 3900 | 61.2 |  |  |  |  |  |  |  | 
CCN(CC)CCCCn1c2ccccc2c(=O)c2ccccc21 | > 10 | > 10 | > 10 | 34.5 | 10200 | 7.6 |  |  |  |  |  |  |  | 
